One data set addresses T1, Glucocorticoid Receptors (Rattus norvegicus, UniProt P06536).
T1 construct: from tissue; host or cells: rat brain cytosol
T1 sequence (P06536 1-795): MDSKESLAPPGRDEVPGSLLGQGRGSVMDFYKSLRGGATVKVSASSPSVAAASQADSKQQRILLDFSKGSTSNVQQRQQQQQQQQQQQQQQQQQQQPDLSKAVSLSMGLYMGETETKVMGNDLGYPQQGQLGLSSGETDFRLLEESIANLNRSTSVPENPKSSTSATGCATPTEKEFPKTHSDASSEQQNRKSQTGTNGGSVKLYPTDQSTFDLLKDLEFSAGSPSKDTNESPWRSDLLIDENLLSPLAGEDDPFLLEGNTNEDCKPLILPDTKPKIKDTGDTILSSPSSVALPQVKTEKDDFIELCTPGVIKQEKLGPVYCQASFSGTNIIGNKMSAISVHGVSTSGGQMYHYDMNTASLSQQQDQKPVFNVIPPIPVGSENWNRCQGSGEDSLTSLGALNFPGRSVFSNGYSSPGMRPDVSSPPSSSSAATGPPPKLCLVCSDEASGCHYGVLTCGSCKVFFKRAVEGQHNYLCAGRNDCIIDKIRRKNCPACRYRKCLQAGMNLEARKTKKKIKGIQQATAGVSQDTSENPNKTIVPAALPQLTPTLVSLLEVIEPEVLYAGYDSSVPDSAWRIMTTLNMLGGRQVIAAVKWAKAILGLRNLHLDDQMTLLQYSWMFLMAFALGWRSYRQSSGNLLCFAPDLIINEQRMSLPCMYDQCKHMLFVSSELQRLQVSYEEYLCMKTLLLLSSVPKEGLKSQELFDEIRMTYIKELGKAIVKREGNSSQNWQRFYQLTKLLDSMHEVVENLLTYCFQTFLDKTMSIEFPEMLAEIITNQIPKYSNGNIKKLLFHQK
Put plainly: Inhibition of 3H-dexamethasone binding, brain cytosol. The arrangement: species or system rats; dose or concentration left out as unconfirmed. Particulars: read-out: % of Inhibition. The method, then:
Various hormonal activities of representative neuroactive steroids were further studied through testing their potential estrogenic, mineralocorticoid and glucocorticoid activities. These activities were analyzed by monitoring the ability of the compounds to inhibit binding of the steroid hormones to their respective hormone receptors.
For Table 4, brain cytosol fractions were prepared as for Table 3, and the compounds were incubated with 3 nM of ^3H-dexamethasone (the specific ligand for the glucocorticoid receptor).

Another data set concerns picrotoxin. Description: Anticonvulsant test against picrotoxin. The class given is in vivo, mice. Particulars: Mus musculus, read-out: ED50 PICRO. The method, then:
(§1) The anticonvulsant tests are similar to that described above. […] The number of animals with tonic and/or clonic convulsions was recorded. In the maximal electroshock test, 50 mA of current at 60 Hz was delivered through corneal electrodes for 200 msec to induce tonic seizure. The ability of compounds to abolish the tonic component was defined as the endpoint. General CNS depression potential was determined by a rotorod test 10 minutes after the injection of compounds where the number of mice staying on a rotating (6 rpm) rod for 1 minute in one of the three trials was determined. […] Table 7. Anticonvulsant Activity of Exemplified Neuroactive Steroids and those of Selected Clinically Useful Anticonvulsants in Mice

In data set [1] the test system is N.I.H. Swiss-Webster mice. Description: Elevated plus-maze. It is filed as in vivo. The conditions noted are these: 5 min test, ten minutes after injection (Fig. 9A). The source says:
The theoretical basis for the elevated plus-maze test is similar to that of the light/dark transition test. […] The apparatus consists of two open-arms and two enclosed-arms. The elevated plus-maze test allows for two measures of anxiety, the number of entries into the open-arms and the time spent on the open-arms, both expressed as a percentage of the total number of entries and time spent in/on both the open-arms and enclosed-arms.
Male N.LH. Swiss-Webster mice (Harlan, Indianapolis, IN) weighing 15-20 g were housed four per cage in polyethylene cages with sawdust bedding. The colony mom was environmentally controlled (22°C) with a 12^- hr light/dark cycle (0600-1800 hr). Food and water were available ad libitum, except during testing. The experiments were run from 0700-1500 hr and groups were counterbalance for time of day effects. Mice were only administered drug or vehicle once.
The apparatus included two open arms perpendicular to two enclosed arms elevated 50 cm from the floor. Each arm was 50 cm long and the walls of the enclosed arms were 40 cm tall. The maze was made completely of black plexiglass. Incandescent 200 W light bulbs were above each of the open arms to produce a strong contrast between the open arms and the enclosed arms.
Ten minutes after an injection, the N.I.H. Swiss-Webster mice were placed in the center of the plus-maze facing an open arm. During the 5 min test period, the number of entries onto the open arms and the enclosed arms, and the time spent in the open arms and enclosed arms were measured. All four paws had to be within an arm for the dependent variable to be measured. Therefore, the time spent in the center of the maze is not counted, so the total time spent in the open arms and the enclosed arms may not equal 5 min.

Data set [2] concerns N.I.H. Swiss-Webster mice. Put plainly: Light/dark transition test. It is filed as in vivo. The conditions noted are these: IP, 10 min test, vs control, Dunnett's t-test (Fig. 8).
Experimental: Male N.I.H. Swiss-Webster mice (Harlan, Harlan, Indianapolis, IN) weighing 15-20 g were housed four per cage in polyethylene cages with sawdust bedding. The colony room was environmentally controlled (22°C) with a hr light/dark cycle (0600-1800hr). Food and water were available ad libitum, except during testing. The experiments were run from 0700-1500 hr and groups were counterbalanced for time of day effects. Mice were only administered drug or vehicle once.
The apparatus included two 2-compartment automated test chambers (Model RXYZCM16, Omnitech Electronics, Columbus, OH). The open compartment was connected to the enclosed compartment via a 7.5 × 7.5 cm passageway. The open compartment was brightly lit using a 200 W incandescent light bulb. The experimental room was kept dark. Interruptions of the infrared beams in either chamber were automatically recorded by being linked to a computer through a Digiscan Analyzer (Omnitech and the data was analyzed using the Integrated Lab Animal Monitoring System (Omnitech Electronics). N.IH. Swiss-Webster mice were administered vehicle or test drug intraperiotoneally (IP),10 min later they were placed in the center of the lit compartment. The number of transitions between the lit and dark chambers, total activity in the lit chamber and the time spent in the lit chamber were measured during a 10 min test period.
In another data set the test system is Sprague-Dawley rats. Description: Geller-Seifter conflict test. The conditions noted are these: subcutaneous administration (Figure 10). The class given is in vivo. The source says:
This animal model of human anxiety utilizes a conditioned state of conflict in rats to ascertain the anxiolytic properties of drugs. […] The first includes bar pressing under a variable […] schedule without punishment. The second component is a fixed ratio schedule with each bar press resulting in a positive reinforcement and a punishment. The punished component produces a state of conflict within the animal. […] An anxiolytic response would increase the punished responding without affecting the unpunished responding.
Rats were housed individually under a 12-hour light-dark cycle with lights on from 0700-1900.
Rats were trained in test chambers (Coulbourn instruments) with a lever mounted in one wall, a small dipper that delivered the 0.1-mL milk reward (1 part Eagle condensed : milk 2 parts water), and a metal grid floor through which the foot-shock punishment was administered. A DEC PDP 11/73 minicomputer nmning SKED (State Systems) was used for programming and recording.
Rates initially learned to respond on a continuous reinforcement schedule and progressed rapidly to 30-sec, 1-min, and 2-min variable interval (VI) schedules. On the continuous reinforcement schedule, rats received milk reward following every lever press; on the VI schedules, milk rewards were available at infrequent and variable intervals, eventually at an average of once every 2 min. […] During conflict periods, which were signalled by the presentation of a light and a tone, the continuous reinforcement schedule was again in force and each lever press delivered both a milk reward and a brief ([…]) foot-shock Shock intensity was 0.2 mA initially, and.was increased daily in increments of 0.02 mA in order to gradually suppress lever pressing to 5 responses or less per conflict period. […] Drug-induced increases in the rate of punished responses were taken as an index of antianxiety activity, while decreases in the rate of unpunished responses were taken as an index of response depression or sedation.

The nature of data set [3]: Rotorod test (general CNS depression potential). The conditions noted are these: mouse, in vivo, ip. The method, then: as §1
(The rotarod test checks motor coordination on a turning rod.)

For the compound `CC(=O)[C@H]1CC[C@H]2[C@@H]3CC[C@H]4C[C@H](O)CC[C@]4(C)[C@H]3CC[C@]12C` [3α-Hydroxy-5α-pregnan-20-one, 3α-hydroxy-5α-pregnan-20-one], the inhibition – broadly, how much of the control response was suppressed – on Glucocorticoid Receptors turned out to be 8.7%. The ED50 – broadly, the dose that gives a 50% effect, or the effect in half of the subjects – with picrotoxin came out at 10.2 mg/kg. The “dose producing significant increase in entries into the open-arms” value in data set [1] is 20 mg/kg. In addition, in data set [2], the “number of transitions between the dark box and the light box, in words” value is reported as “significantly increased”. The “dose of peak effect on rate of punished responses” value with Sprague-Dawley rats is given as 4.4 mg/kg.

Take `C[C@]12CC[C@@H](O)C[C@@H]1CC[C@@H]1[C@@H]2CC[C@]2(C)[C@@H](C(=O)CO)CC[C@@H]12` [3α,21-dihydroxy-5α-pregnan-20-one]: the inhibition at Glucocorticoid Receptors turned out to be 29.5%. The compound further displayed an ED50 at 10 min in data set [3] of 22.9 mg/kg. The ED50 with picrotoxin was found to be 5.6 mg/kg.

Values taken from EP1038880B1, “Androstanes and pregnanes for allosteric modulation of GABA receptor” (priority 1994, dated 1995).
